Results on 16 compounds are retold here after patent publication US10947227B2, “Tricyclic heterocyclic compounds as sting activators” (Incyte Corporation, priority 2018, dated 2021).

The test system of the assay is IRF3 activation in THP-1 Dual Cells. Briefly: IRF3 activation assay in THP-1 Dual Cells (QUANTI-Blue readout). Type of assay: cell-based. As to conditions: Homo sapiens, THP1-Dual, 24 h. The procedure: THP-1 Dual Cells (Invivogen) were maintained in RPMI1640 medium with addition of 10% FBS, 100 μg/ml zeocin, 10 μg/ml blasticidin. Cells were added in a 96-well flat bottom assay plate at 100,000 per well in 100 μL complete RPMI medium. Test compounds were prepared by serial dilution in complete RPMI medium and 100 μL test compounds were transferred to each corresponding well. The assay plate was incubated at 37° C., 5% CO2 for 24 hours. After the overnight incubation, 20 μL of the culture supernatants were collected, followed by addition of 180 μL of QUANTI-Blue (Invivogen) to assess IRF3 activity. The amount of IRF3 activation was assessed by reading the absorbance at 620-655 nm with a microplate reader 2 hours later. The culture supernatant from the untreated THP-1 cells was used as the negative control. To determine the NF-κB activation, another 20 μL of culture supernatant were transferred to a 96-well white plate, followed by addition of 50 μL of Quanti-Luc™ assay solution (Invivogen). The amount of NF-κB activation induced by the test compounds were determined by the luminescence above the untreated control. EC50 determination was performed by fitting the curve of percent control activity versus the log of the compound concentration using the GraphPad Prism 6.0 software.

Compound `CCn1nc(C)cc1C(=O)Nc1nc2cc(C(N)=O)cc(OCCCO)c2n1C/C=C/Cn1c2ccc(C(N)=O)cc2c2cnc(-c3cc(C)nn3CC)nc21` [Example 18, (E)-9-(4-(5-carbamoyl-2-(1-ethyl-3-methyl-1H-pyrazole-5-carboxamido)-7-(3-hydroxypropoxy)-1H-benzo[d]imidazol-1-yl)but-2-en-1-yl)-2-(1-ethyl-3-methyl-1H-pyrazol-5-yl)-9H-pyrimido[4,5-b]indole-6-carboxamide] came in with an EC50 (Table 1, 24 hours incubation) of less than 200 nM and an EC50 (Table 2, 24 hours incubation) of less than 50 nM.
The corresponding values for `CCn1nc(C)cc1C(=O)Nc1nc2cc(C(N)=O)cc(OCCCOC(=O)c3cc(C)nn3CC)c2n1C/C=C/Cn1c2nc(-c3cc(C)nn3CC)ncc2c2cc(C(N)=O)cc(OCCCN3CCOCC3)c21` [Example 19, (E)-3-((5-carbamoyl-1-(4-(6-carbamoyl-2-(1-ethyl-3-methyl-1H-pyrazol-5-yl)-8-(3-morpholinopropoxy)-9H-pyrimido[4,5-b]indol-9-yl)but-2-en-1-yl)-2-(1-ethyl-3-methyl-1H-pyrazole-5-carboxamido)-1H-benzo[d]imidazol-7-yl)oxy)propyl 1-ethyl-3-methyl-1H-pyrazole-5-carboxylate] are less than 200 nM and less than 50 nM.
With `CCn1nc(C)cc1C(=O)Nc1nc2cc(C(N)=O)cc(OCCCO)c2n1C/C=C/Cn1c2nc(-c3cc(C)nn3CC)ncc2c2cc(C(N)=O)cc(OCCCN3CCOCC3)c21` [Example 20, (E)-9-(4-(5-carbamoyl-2-(1-ethyl-3-methyl-1H-pyrazole-5-carboxamido)-7-(3-hydroxypropoxy)-1H-benzo[d]imidazol-1-yl)but-2-en-1-yl)-2-(1-ethyl-3-methyl-1H-pyrazol-5-yl)-8-(3-morpholinopropoxy)-9H-pyrimido[4,5-b]indole-6-arboxamide], the concentration for a half-maximal effect (EC50) runs as follows: (Table 1, 24 hours incubation) less than 200 nM; (Table 2, 24 hours incubation) less than 50 nM.
The corresponding values for `CCn1nc(C)cc1C(=O)Nc1nc2cc(C(N)=O)cc(OCCCOC(=O)c3cc(C)nn3CC)c2n1C/C=C/Cn1c2nc(-c3cc(C)nn3CC)ncc2c2cc(C(N)=O)cc(OCCCOC)c21` [Example 21, (E)-3-((5-carbamoyl-1-(4-(6-carbamoyl-2-(1-ethyl-3-methyl-1H-pyrazol-5-yl)-8-(3-methoxypropoxy)-9H-pyrimido[4,5-b]indol-9-yl)but-2-en-1-yl)-2-(1-ethyl-3-methyl-1H-pyrazole-5-carboxamido)-1H-benzo[d]imidazol-7-yl)oxy)propyl 1-ethyl-3-methyl-1H-pyrazole-5-carboxylate] are less than 200 nM and less than 50 nM.
Take `CCn1nc(C)cc1C(=O)Nc1nc2cc(C(N)=O)cc(OCCCO)c2n1C/C=C/Cn1c2nc(-c3cc(C)nn3CC)ncc2c2cc(C(N)=O)cc(OCCCOC)c21` [Example 22, (E)-9-(4-(5-carbamoyl-2-(1-ethyl-3-methyl-1H-pyrazole-5-carboxamido)-7-(3-hydroxypropoxy)-1H-benzo[d]imidazol-1-yl)but-2-en-1-yl)-2-(1-ethyl-3-methyl-1H-pyrazol-5-yl)-8-(3-methoxypropoxy)-9H-pyrimido[4,5-b]indole-6-carboxamide]: the EC50 (Table 1, 24 hours incubation) is less than 200 nM and the EC50 (Table 2, 24 hours incubation) is less than 50 nM.
The matching figures for `CCn1nc(C)cc1C(=O)Nc1nc2cc(C(N)=O)cc(C)c2n1C/C=C/Cn1c2ccc(C(N)=O)cc2c2cnc(-c3cc(C)nn3CC)c(F)c21` [Example 23, (E)-5-(4-(5-carbamoyl-2-(1-ethyl-3-methyl-1H-pyrazole-5-carboxamido)-7-methyl-1H-benzo[d]imidazol-1-yl)but-2-en-1-yl)-3-(1-ethyl-3-methyl-1H-pyrazol-5-yl)-4-fluoro-5H-pyrido[4,3-b]indole-8-carboxamide]: less than 200 nM and 50 to 200 nM.
The matching figures for `CCn1nc(C)cc1C(=O)Nc1nc2cc(C(N)=O)cc(C)c2n1C/C=C/Cn1c2ccc(C(N)=O)cc2c2cc(F)c(-c3cc(C)nn3CC)nc21` [Example 24, (E)-9-(4-(5-carbamoyl-2-(1-ethyl-3-methyl-1H-pyrazole-5-carboxamido)-7-methyl-1H-benzo[d]imidazol-1-yl)but-2-en-1-yl)-2-(1-ethyl-3-methyl-1H-pyrazol-5-yl)-3-fluoro-9H-pyrido[2,3-b]indole-6-carboxamide]: less than 200 nM and less than 50 nM.
Regarding `CCn1nc(C)cc1C(=O)Nc1nc2cc(C(N)=O)cc(C)c2n1C/C=C/Cn1c2ccc(C(N)=O)cc2c2cc(C#N)c(-c3cc(C)nn3CC)nc21` [Example 25, (E)-9-(4-(5-carbamoyl-2-(1-ethyl-3-methyl-1H-pyrazole-5-carboxamido)-7-methyl-1H-benzo[d]imidazol-1-yl)but-2-en-1-yl)-3-cyano-2-(1-ethyl-3-methyl-1H-pyrazol-5-yl)-9H-pyrido[2,3-b]indole-6-carboxamide], the EC50 by setting is: (Table 1, 24 hours incubation) less than 1000 nM; (Table 2, 24 hours incubation) 200 to 500 nM.
The matching figures for `CCn1nc(C)cc1C(=O)Nc1nc2cc(C(N)=O)cc(C)c2n1C/C=C/Cn1c2ccc(C(N)=O)cc2c2cnc(-c3cc(C)nn3CC)c(C#N)c21` [Example 26, (E)-5-(4-(5-carbamoyl-2-(1-ethyl-3-methyl-1H-pyrazole-5-carboxamido)-7-methyl-1H-benzo[d]imidazol-1-yl)but-2-en-1-yl)-4-cyano-3-(1-ethyl-3-methyl-1H-pyrazol-5-yl)-5H-pyrido[4,3-b]indole-8-carboxamide]: less than 1000 nM and 500 to 1000 nM.
As for `CCn1nc(C)cc1C(=O)Nc1nc2cc(C(N)=O)cc(OCCCN3CCOCC3)c2n1C/C=C/Cn1c2nc(-c3cc(C)nn3CC)ncc2c2cc(C(N)=O)cc(OCCCOC)c21` [Example 27, (E)-9-(4-(5-carbamoyl-2-(1-ethyl-3-methyl-1H-pyrazole-5-carboxamido)-7-(3-morpholinopropoxy)-1H-benzo[d]imidazol-1-yl)but-2-en-1-yl)-2-(1-ethyl-3-methyl-1H-pyrazol-5-yl)-8-(3-methoxypropoxy)-9H-pyrimido[4,5-b]indole-6-carboxamide], the EC50 is, setting by setting: (Table 1, 24 hours incubation) less than 200 nM; (Table 2, 24 hours incubation) less than 50 nM.
Take `CCn1nc(C)cc1C(=O)Nc1nc2cc(C(N)=O)cc(O)c2n1C/C=C/Cn1c2nc(-c3cc(C)nn3CC)ncc2c2cc(C(N)=O)cc(OCCCOC)c21` [Example 28, (E)-9-(4-(5-carbamoyl-2-(1-ethyl-3-methyl-1H-pyrazole-5-carboxamido)-7-hydroxy-1H-benzo[d]imidazol-1-yl)but-2-en-1-yl)-2-(1-ethyl-3-methyl-1H-pyrazol-5-yl)-8-(3-methoxypropoxy)-9H-pyrimido[4,5-b]indole-6-carboxamide]: the EC50 was less than 200 nM (Table 1, 24 hours incubation) and less than 50 nM (Table 2, 24 hours incubation).
With `CCn1nc(C)cc1C(=O)Nc1nc2cc(C(N)=O)cc(OCCCC#N)c2n1C/C=C/Cn1c2nc(-c3cc(C)nn3CC)ncc2c2cc(C(N)=O)cc(OCCCOC)c21` [Example 29, (E)-9-(4-(5-carbamoyl-7-(3-cyanopropoxy)-2-(1-ethyl-3-methyl-1H-pyrazole-5-carboxamido)-1H-benzo[d]imidazol-1-yl)but-2-en-1-yl)-2-(1-ethyl-3-methyl-1H-pyrazol-5-yl)-8-(3-methoxypropoxy)-9H-pyrimido[4,5-b]indole-6-carboxamide], the EC50 (Table 2, 24 hours incubation) was less than 50 nM.
Still for that read-out and setting: then `CCn1nc(C)cc1C(=O)Nc1nc2cc(C(N)=O)cc(OC(C)C)c2n1C/C=C/Cn1c2nc(-c3cc(C)nn3CC)ncc2c2cc(C(N)=O)cc(OCCCOC)c21` [Example 30, (E)-9-(4-(5-carbamoyl-2-(1-ethyl-3-methyl-1H-pyrazole-5-carboxamido)-7-isopropoxy-1H-benzo[d]imidazol-1-yl)but-2-en-1-yl)-2-(1-ethyl-3-methyl-1H-pyrazol-5-yl)-8-(3-methoxypropoxy)-9H-pyrimido[4,5-b]indole-6-carboxamide], with 50 to 200 nM.
Same read-out and setting: under `CCn1nc(C)cc1C(=O)Nc1nc2cc(C(N)=O)cc(OCCCN3CCN(C)CC3)c2n1C/C=C/Cn1c2nc(-c3cc(C)nn3CC)ncc2c2cc(C(N)=O)cc(OCCCOC)c21` [Example 31, (E)-9-(4-(5-carbamoyl-2-(1-ethyl-3-methyl-1H-pyrazole-5-carboxamido)-7-(3-(4-methylpiperazin-1-yl)propoxy)-1H-benzo[d]imidazol-1-yl)but-2-en-1-yl)-2-(1-ethyl-3-methyl-1H-pyrazol-5-yl)-8-(3-methoxypropoxy)-9H-pyrimido[4,5-b]indole-6-carboxamide] stands 50 to 200 nM; under `CCn1nc(C)cc1C(=O)Nc1nc2cc(C(N)=O)cc(OCCCO)c2n1C/C=C/Cn1c2ccc(C(N)=O)cc2c2cc(F)c(-c3cc(C)nn3CC)nc21` [Example 32, (E)-9-(4-(5-carbamoyl-2-(1-ethyl-3-methyl-1H-pyrazole-5-carboxamido)-7-(3-hydroxypropoxy)-1H-benzo[d]imidazol-1-yl)but-2-en-1-yl)-2-(1-ethyl-3-methyl-1H-pyrazol-5-yl)-3-fluoro-9H-pyrido[2,3-b]indole-6-carboxamide], less than 50 nM.
Under “Table 2, 24 hours incubation”, `CCn1nc(C)cc1C(=O)Nc1nc2cc(C(N)=O)cc(OCCCN)c2n1C/C=C/Cn1c2nc(-c3cc(C)nn3CC)ncc2c2cc(C(N)=O)cc(OCCCOC)c21` [Example 33, (E)-9-(4-(7-(3-aminopropoxy)-5-carbamoyl-2-(1-ethyl-3-methyl-1H-pyrazole-5-carboxamido)-1H-benzo[d]imidazol-1-yl)but-2-en-1-yl)-2-(1-ethyl-3-methyl-1H-pyrazol-5-yl)-8-(3-methoxypropoxy)-9H-pyrimido[4,5-b]indole-6-carboxamide] displayed an EC50 of 500 to 1000 nM.
